Entries after “also recorded” stand apart in the source; their conditions may differ. Like-named read-outs stand apart in the source and are kept apart here.
Legend:
[1] = system: HIV-1DV; assay: HIV-1 p24 production in SUP T1 cells; type: cell-based; details: Human immunodeficiency virus 1, 96 h; SUP T1, HIV-1DV, four days
[2] = target: recombinant HIV-1 integrase (wild-type) (Human immunodeficiency virus type 1 group M subtype B, UniProt P12497); details: previously reported by Ojwang et al., cited from earlier work
[3] = Repeat-dose monkey study: coagulation parameters (aPTT); type: in vivo, cynomolgus monkeys
Method: Hematology and coagulation parameters. Hematology and coagulation parameters were determined 9-11 days prior to the start of the study, just prior to administering doses 1 (day 1) and 12 (day 23), five minutes after dosing (coagulation only), 30 minutes and 4 hours following dosing, one day after the 12th dose (day 24), and in recovery monkeys at sacrifice (day 37). The following were determined: red blood cell count and morphology, total and differential while blood cells, hemoglobin, hematocrit, prothrombin time, fibrinogen, mean cell hemoglobin, mean corpuscular volume, mean corpuscular hemoglobin concentration, platelet count, activate partial thromboplastin time, and D-dime. Hematology was determined at Sierra Nevada Laboratories (Reno, Nev.).

[4] = system: HIV-1 strains (SKI, RF, DV, IIIB, ADP/141); details: previously reported by Ojwang et al.; cited from earlier work
[5] = human, up to 236 ug/mL
[6] = target: T1, HIV-1 protease (Human immunodeficiency virus type 1 group M subtype B, UniProt P04585); assay: HIV-1 protease assay; type: biochemical; details: up to 10 μM
T1 construct: HIV-1 protease enzyme (Bachem) was diluted to 166 ug/mL; purchased Bachem
Method: Protease assays. HIV-1 protease enzyme (Bachem) was diluted to 166 ug/mL in 50 mM NaOAc, 5 mM DTT, 2 mM ETDA, and 10% glycerol (pH 5.0) and stored as 10 ul aliquots at −20° C. HIV protease substrate I (Molecular Probes) was diluted to a working concentration of 0.32 nmol/μL. Enzyme (20 μL), substrate (20 μL) and drug (20 μL ) were added to each well of a microtiter plate. Positive and negative controls were evaluated in parallel. Fluorescence was quantitated on a Labsystems Fluoroskan II using 355 nm for excitation and 460 nm emission wavelengths at 37° C. at time zero and at 30 minute intervals for 2 hours.

[7] = parameters: species or system cynomolgus monkeys; details: cynomolgus monkey, in vivo
Method: Dosing. Twelve experimentally naive cynomolgus monkeys were assigned to four groups of three animals each. Prior to dosing, each animal was lightly sedated with a combination of ketamine (1 0 mg/kg) and diazepam (0.5 mg/kg), and a catheter was introduced into the femoral artery for recording central arterial pressure. Monkeys were given a single intravenous infusion of 5, 20, or 50 mg AR177/kg or saline over ten minutes through a cephalic vein catheter using a Harvard infusion pump. Arterial blood samples were drawn at −10, +10, +20, +40, +60 and +120 minutes relative to the initiation of infusion into EDTA-containing tubes for hematology, complement factors, coagulation assay, serum chemistry, and plasma AR177 determination. At 24 hours post-infusion, blood was drawn via the femoral vein into EDTA-containing tubes for these same parameters. The concentration of AR177 in dosing solutions was confirmed post experiment by absorbance at 280 nm on a spectrophotometer. For the determination of AR177 by HPLC, the plasma fraction was obtained by low speed centrifugation of blood, and stored at −20° C. until used. Electrocardiograms (ECGs), central pressure, and heart rate were recorded continuously for 120 minutes following the initiation of doing. Table E-1 summarizes the study design. […]
Complement factors. The complement split product Bb and total hemolytic complement CH50 were determined. […]

[8] = Oligomer folding by circular dichroism; details: KCl, 25° C., 20 mM Li3PO4
[9] = parameters: species or system HIV-positive human patients; details: human, in vivo
Method: Four HIV-infected patients/group were dosed with AR177 at 0.75 mg/kg and […], and two HIV-infected patients were dosed so far with AR177 at 3.0 mg/kg by intravenous infusion over two hours.
Blood was collected in EDTAp coated tubes at 0.25, 05, 1, 2, 2.05, 3, 3.5, 4, 6, 8, 11, 14, 26, 48, 98, and 122 hours following initiation of drug administration. Plasma was obtained by low speed centrifugation of the blood, and was stored frozen until analyzed by HPLC for AR177 concentration. The concentration of AR177 was determined in patient plasma using a validated anion-exchange HPLC method at the Division of Clinical Pharmacy of the University of California, San Francisco. This method has a limit of quantitation of 15 ng/mL in human plasma.
Pharmacokinetic parameters were calculated using PKAnalyst software (MicroMath, Salt Lake City, Utah). The pharmacokinetic data best fit a two compartment model for all of the patients. The alpha and beta half-lives were almost identical in each of the patients, based on the software interpretation of the AR177 plasma concentration versus time plot (FIGS. 56-59). For this reason, only one half-life is reported.

[10] = system: HIV-1SKI; assay: Single cycle analysis of HIV-1 cDNA, CEM-SS cells; type: cell-based; details: 10- to 100-fold over IC50

## Cc1cn([C@H]2C[C@H](N=[N+]=[N-])[C@@H](CO)O2)c(=O)[nH]c1=O [AZT, 3′-azido-3′-deoxythymidine]
[1]
  IC50: 400 nM

## 5′-gtggtgggtgggtgggt-3′ [T30177] (GTGGTGGGTGGGTGGGT; phosphorothioate termini, further chemistry not given here)
[2]; read-out: IC50 3′-PROC
  IC50: 79 nM
[2]; read-out: IC50 STR · TRA
  IC50: 49 nM
[3]; 2.5 mg/kg
  anticoagulation activity (aPTT): no anticoagulation activity
[3]; 10 mg/kg, 5 minutes post-dosing, doses 1 and 12
  mean aPTT relative to pre-dose: approximately twice the pre-dose value
[3]; 40 mg/kg, five minutes after dosing
  mean aPTT: exceeded the upper limit of the assay
[3]; cynomolgus monkey, in vivo
  no effect plasma AR177 concentration versus aPTT: 60-100 μg AR177/mL
  plasma AR177 concentration at doubling of aPTT: 100-200 μg AR177/mL
  plasma AR177 concentration at tripling of aPTT: 220-300 μg AR177/mL
[4]
  IC50: 75 nM
[5]
  complement CH50: no effect

## 5′-gtggtgggtgggtgggt-3′ (GTGGTGGGTGGGTGGGT; phosphorothioate termini, further chemistry not given here) [T30177, pPT version of parent compound I100-15, 17 mer]
[6]
  inhibition of HIV-1 protease: No observable inhibition; also recorded: no effect on the viral enzyme was observed
[7]
  CH50 levels: small and transient decreases
  change in CHX (CH50) levels: −25%
[8]
  midpoint of K+ induced folding transition (CD, 264 nm): 0.15 mM
[9]; 0.75 mg/kg
  initial volume of distribution: 0.16 ± 0.05 L/kg
  steady-state volume of distribution: 0.14 ± 0.05 L/kg
[9]; 3 mg/kg
  initial volume of distribution: 0.08 ± 0.00 L/kg
  steady-state volume of distribution: 0.05 ± 0.03 L/kg
[10]
  viral cDNA 12 hours post-infection, drug added at time of infection: viral cDNA was detected

From patent US6355785B1, “Guanosine-rich oligonucleotide integrase inhibitors” (Aronex Pharmaceuticals, Inc., priority 1993, dated 2002)
